Assay results as given in patent US20230183640A1, “METABOLIC INHIBITORS WITH EFFICACY FOR INHIBITING SULFIDE PRODUCTION IN HARSH ENVIRONMENTS” (MC (US) 3 LLC, priority 2020, published 2023).

Key:
Assay in all cases: Log (Growth) efficacy in anaerobic conditions, non-SRB bacteria
Assay type in all cases: cell-based
[1] = test system: Klebsiella pneumoniae 13883
Protocol: (§1) Enumerations were done at each time point, which included 0 hour, 1 hour, 4 hours and 24 hours. Enumeration plates were made to determine the log growth in each dosed sample. For this process, enumeration plates were prepared by adding 180 μL fresh TSB. 20 μL was taken from each well of the challenge plates and transferred to the enumeration plates using a 20-200 μL multichannel pipette. Enumeration plates were mixed three times using the multichannel pipette and serial diluted down the plate tenfold (20 μL into 180 μL). This serial dilution process was repeated for all challenge plate rows giving a total of 6 enumeration plates. These enumeration plates were read after 24-hours and by counting the number of turbid wells in a row.
(§2) Klebsiella pneumoniae 13883, Enterobacter aerogenes 13048, Escherichia coli 8739, and Enterococcus faecalis 29212 cultures were made by adding one loop from a freezer stock to 10 mL of fresh Phenol Red Media. These were grown anaerobically at 30° C. for 24 hours.
(§3) Following the 24-hour incubation, each culture was diluted to 1:10 in fresh Phenol Red Media. Using these cultures, two deep well plates were prepared. Edge wells were not used due to their inherent variability and evaporation of the media. Each of the components were added at their respective concentrations for a final volume of 250 μL per well. In Table 9, the concentrations of the compound C1 used for the experiments are listed. Each experiment was done with at least three replicates for different treatments and non-treatment controls. Plates were then sealed with a titer-top and incubated at room temperature in anaerobic chamber. Enumerations were conducted at 0 hour, 1 hour, 4 hours, and 24 hours. The process for these enumerations was the same as that done for example 2; however, utilizing phenol red media instead of tryptic soy broth.

[2] = test system: Enterococcus faecalis 29212
Protocol: as §1, §2, §3

[3] = test system: Escherichia coli 8739
Protocol: as §1, §2, §3

[4] = test system: Enterobacter aerogenes 13048
Protocol: as §1, §2, §3

With `O=C(CN1C(=O)c2cccc3cccc(c23)C1=O)NO` [C1] the “Log (Growth)” value ([1]; 0 hours, 15.625 PPM) was 6.667, the “Log (Growth)” value ([1]; 0 hours, 31.25 PPM) was 6.667 and the “Log (Growth)” value ([1]; 0 hours, 62.5 PPM) was 6.667. For the same molecule, the “Log (Growth)” value ([1]; 0 hours, 125 PPM) was 6.667, the “Log (Growth)” value ([1]; 0 hours, 250 PPM) was 6.000 and the “Log (Growth)” value ([1]; 0 hours, 500 PPM) was 6.000. The “Log (Growth)” value ([1]; 1 hour, 15.625 PPM) was 6.667, the “Log (Growth)” value ([1]; 1 hour, 31.25 PPM) was 5.667 and the “Log (Growth)” value ([1]; 1 hour, 62.5 PPM) was 5.000. The “Log (Growth)” value ([1]; 1 hour, 125 PPM) was 3.667, the “Log (Growth)” value ([1]; 1 hour, 250 PPM) was 4.333 and the “Log (Growth)” value ([1]; 1 hour, 500 PPM) was 4.333. The “Log (Growth)” value ([1]; 4 hours, 15.625 PPM) was 3.333, the “Log (Growth)” value ([1]; 4 hours, 31.25 PPM) was 2.000 and the “Log (Growth)” value ([1]; 4 hours, 62.5 PPM) was 2.000. For the same molecule, the “Log (Growth)” value ([1]; 4 hours, 125 PPM) was 1.667, the “Log (Growth)” value ([1]; 4 hours, 250 PPM) was 2.333 and the “Log (Growth)” value ([1]; 4 hours, 500 PPM) was 2.000. The “Log (Growth)” value ([1]; 24 hours, 15.625 PPM) was 6.333, the “Log (Growth)” value ([1]; 24 hours, 31.25 PPM) was 4.667 and the “Log (Growth)” value ([1]; 24 hours, 62.5 PPM) was 5.667. The “Log (Growth)” value ([1]; 24 hours, 125 PPM) was 1.667, the “Log (Growth)” value ([1]; 24 hours, 250 PPM) was 0.000 and the “Log (Growth)” value ([1]; 24 hours, 500 PPM) was 0.000. The “Log (Growth)” value ([2]; 0 hours, 15.625 PPM) was 7.000, the “Log (Growth)” value ([2]; 0 hours, 31.25 PPM) was 6.667 and the “Log (Growth)” value ([2]; 0 hours, 62.5 PPM) was 7.000. For the same molecule, the “Log (Growth)” value ([2]; 0 hours, 125 PPM) was 6.333, the “Log (Growth)” value ([2]; 0 hours, 250 PPM) was 7.000 and the “Log (Growth)” value ([2]; 0 hours, 500 PPM) was 6.667. For the same molecule, the “Log (Growth)” value ([2]; 1 hour, 15.625 PPM) was 6.667, the “Log (Growth)” value ([2]; 1 hour, 31.25 PPM) was 6.000 and the “Log (Growth)” value ([2]; 1 hour, 62.5 PPM) was 6.333. The “Log (Growth)” value ([2]; 1 hour, 125 PPM) was 5.667, the “Log (Growth)” value ([2]; 1 hour, 250 PPM) was 6.333 and the “Log (Growth)” value ([2]; 1 hour, 500 PPM) was 6.000. For the same molecule, the “Log (Growth)” value ([2]; 4 hours, 15.625 PPM) was 6.667, the “Log (Growth)” value ([2]; 4 hours, 31.25 PPM) was 5.667 and the “Log (Growth)” value ([2]; 4 hours, 62.5 PPM) was 4.667. For the same molecule, the “Log (Growth)” value ([2]; 4 hours, 125 PPM) was 4.333, the “Log (Growth)” value ([2]; 4 hours, 250 PPM) was 4.333 and the “Log (Growth)” value ([2]; 4 hours, 500 PPM) was 4.667. The “Log (Growth)” value ([2]; 24 hours, 15.625 PPM) was 6.333, the “Log (Growth)” value ([2]; 24 hours, 31.25 PPM) was 5.333 and the “Log (Growth)” value ([2]; 24 hours, 62.5 PPM) was 5.667. The “Log (Growth)” value ([2]; 24 hours, 125 PPM) was 5.667, the “Log (Growth)” value ([2]; 24 hours, 250 PPM) was 4.333 and the “Log (Growth)” value ([2]; 24 hours, 500 PPM) was 4.000. For the same molecule, the “Log (Growth)” value ([3]; 0 hours, 15.625 PPM) was 7.000, the “Log (Growth)” value ([3]; 0 hours, 31.25 PPM) was 6.667 and the “Log (Growth)” value ([3]; 0 hours, 62.5 PPM) was 6.667. For the same molecule, the “Log (Growth)” value ([3]; 0 hours, 125 PPM) was 6.333, the “Log (Growth)” value ([3]; 0 hours, 250 PPM) was 6.000 and the “Log (Growth)” value ([3]; 0 hours, 500 PPM) was 6.333. The “Log (Growth)” value ([3]; 1 hour, 15.625 PPM) was 7.000, the “Log (Growth)” value ([3]; 1 hour, 31.25 PPM) was 6.000 and the “Log (Growth)” value ([3]; 1 hour, 62.5 PPM) was 6.333. For the same molecule, the “Log (Growth)” value ([3]; 1 hour, 125 PPM) was 6.000, the “Log (Growth)” value ([3]; 1 hour, 250 PPM) was 6.000 and the “Log (Growth)” value ([3]; 1 hour, 500 PPM) was 6.000. For the same molecule, the “Log (Growth)” value ([3]; 4 hours, 15.625 PPM) was 6.667, the “Log (Growth)” value ([3]; 4 hours, 31.25 PPM) was 6.667 and the “Log (Growth)” value ([3]; 4 hours, 62.5 PPM) was 5.333. For the same molecule, the “Log (Growth)” value ([3]; 4 hours, 125 PPM) was 4.667, the “Log (Growth)” value ([3]; 4 hours, 250 PPM) was 5.000 and the “Log (Growth)” value ([3]; 4 hours, 500 PPM) was 4.333. For the same molecule, the “Log (Growth)” value ([3]; 24 hours, 15.625 PPM) was 6.000, the “Log (Growth)” value ([3]; 24 hours, 31.25 PPM) was 4.000 and the “Log (Growth)” value ([3]; 24 hours, 62.5 PPM) was 2.667. The “Log (Growth)” value ([3]; 24 hours, 125 PPM) was 3.000, the “Log (Growth)” value ([3]; 24 hours, 250 PPM) was 4.000 and the “Log (Growth)” value ([3]; 24 hours, 500 PPM) was 2.667. The “Log (Growth)” value ([4]; 0 hours, 15.625 PPM) was 6.333, the “Log (Growth)” value ([4]; 0 hours, 31.25 PPM) was 6.667 and the “Log (Growth)” value ([4]; 0 hours, 62.5 PPM) was 6.333. For the same molecule, the “Log (Growth)” value ([4]; 0 hours, 125 PPM) was 6.333, the “Log (Growth)” value ([4]; 0 hours, 250 PPM) was 6.667 and the “Log (Growth)” value ([4]; 0 hours, 500 PPM) was 6.333. For the same molecule, the “Log (Growth)” value ([4]; 1 hour, 15.625 PPM) was 7.000, the “Log (Growth)” value ([4]; 1 hour, 31.25 PPM) was 6.333 and the “Log (Growth)” value ([4]; 1 hour, 62.5 PPM) was 7.000. For the same molecule, the “Log (Growth)” value ([4]; 1 hour, 125 PPM) was 6.000, the “Log (Growth)” value ([4]; 1 hour, 250 PPM) was 5.667 and the “Log (Growth)” value ([4]; 1 hour, 500 PPM) was 5.667. The “Log (Growth)” value ([4]; 4 hours, 15.625 PPM) was 7.333, the “Log (Growth)” value ([4]; 4 hours, 31.25 PPM) was 7.000 and the “Log (Growth)” value ([4]; 4 hours, 62.5 PPM) was 4.667. The “Log (Growth)” value ([4]; 4 hours, 125 PPM) was 5.000, the “Log (Growth)” value ([4]; 4 hours, 250 PPM) was 5.333 and the “Log (Growth)” value ([4]; 4 hours, 500 PPM) was 5.333. The “Log (Growth)” value ([4]; 24 hours, 15.625 PPM) was 7.667, the “Log (Growth)” value ([4]; 24 hours, 31.25 PPM) was 6.667 and the “Log (Growth)” value ([4]; 24 hours, 62.5 PPM) was 6.333. For the same molecule, the “Log (Growth)” value ([4]; 24 hours, 125 PPM) was 6.000, the “Log (Growth)” value ([4]; 24 hours, 250 PPM) was 6.333 and the “Log (Growth)” value ([4]; 24 hours, 500 PPM) was 6.000.
